The text below walks through data of patent US9045470B2, “Compounds and compositions as TLR activity modulators” (IRM LLC, priority 2009, dated 2015).

Each structure is given as a SMILES string.

Usually EC50 stands for the concentration needed to bring the measured effect to its halfway point.

The target of data set [1] is T1, human TLR7 (Homo sapiens, UniProt Q9NYK1).
T1 construct: expressed in transfected cells; host or cells: HEK 293 (human embryonic kidney 293), stably transfected; co-transfected pNifty-Luciferase reporter
T1 sequence (Q9NYK1 27-1049): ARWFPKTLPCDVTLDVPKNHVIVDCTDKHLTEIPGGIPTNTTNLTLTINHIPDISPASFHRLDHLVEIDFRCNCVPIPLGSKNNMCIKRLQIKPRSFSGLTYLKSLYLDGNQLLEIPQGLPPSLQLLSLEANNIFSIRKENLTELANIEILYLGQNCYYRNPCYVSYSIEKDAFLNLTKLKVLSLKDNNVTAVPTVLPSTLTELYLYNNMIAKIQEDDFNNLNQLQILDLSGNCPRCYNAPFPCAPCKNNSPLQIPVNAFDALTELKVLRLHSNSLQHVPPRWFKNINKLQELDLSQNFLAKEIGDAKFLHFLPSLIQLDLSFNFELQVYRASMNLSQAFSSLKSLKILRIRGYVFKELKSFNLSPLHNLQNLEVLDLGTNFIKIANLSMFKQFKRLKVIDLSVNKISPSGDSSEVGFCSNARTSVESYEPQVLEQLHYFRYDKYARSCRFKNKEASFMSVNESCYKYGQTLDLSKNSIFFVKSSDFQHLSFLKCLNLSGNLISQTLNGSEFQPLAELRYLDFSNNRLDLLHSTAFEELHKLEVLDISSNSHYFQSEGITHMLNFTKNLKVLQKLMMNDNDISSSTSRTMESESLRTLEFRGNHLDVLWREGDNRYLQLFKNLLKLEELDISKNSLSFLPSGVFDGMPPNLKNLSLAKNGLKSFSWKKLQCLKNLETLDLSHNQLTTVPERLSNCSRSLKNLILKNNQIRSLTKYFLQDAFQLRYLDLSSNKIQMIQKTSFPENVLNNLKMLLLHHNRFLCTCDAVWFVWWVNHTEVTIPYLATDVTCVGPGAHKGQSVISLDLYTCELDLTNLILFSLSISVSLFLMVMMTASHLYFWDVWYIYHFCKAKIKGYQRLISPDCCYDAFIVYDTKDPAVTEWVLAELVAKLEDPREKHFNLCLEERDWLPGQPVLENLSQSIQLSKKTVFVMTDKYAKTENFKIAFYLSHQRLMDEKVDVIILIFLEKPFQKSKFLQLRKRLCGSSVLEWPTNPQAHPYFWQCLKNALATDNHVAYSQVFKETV
Kind of data set: Reporter gene assay: HEK293 cells stably transfected with human TLR7 and NF-kB-driven luciferase reporter. The class given is cell-based. The procedure: Human embryonic kidney 293 (HEK 293) cells were stably transfected with human TLR7 and an NF-kB-driven luciferase reporter vector (pNifty-Luciferase). As a control assay, normal Hek293 transfected with pNifty-Luc were used. Cells were cultured in DMEM supplemented with 2 mM L-glutamine, 10% heart inactivated FBS, 1% penicillin and streptomycin, 2 μg/ml puromycin (InvivoGen #ant-pr-5) and 5 μg/ml of blasticidin (Invitrogen #46-1120). Bright-Glo™ Luciferase assay buffer and substrate were supplied by Promega #E263B and #E264B (assay substrate and buffer respectively). 384 well clear-bottom plates were supplied by Greiner bio-one (#789163-G) and were custom bar-coded plates.
Cells were plated at 25,000 cells/well in 384-well plates in a final volume of 50 μl of media. Cells were allowed to adhere to the plates after overnight (18 hours) culture at 37° C. and 5% CO2. Serially diluted experimental and positive control compounds were then dispensed to each well and incubated for 7 hours at 37° C. and 5% CO2. Cells stimulated with DMSO alone also serve as negative controls. After the incubation, 30 μl of the pre-mix assay buffer and substrate buffer were added to each well according to manufacturer's instructions.
The EC50 value in those experiments is given as that concentration of the test compound in question that provoke a response halfway between the baseline and maximum responses. […] Such EC50 values are obtained relative to the activity of resiquimod set to 100%.
(In a reporter assay the amount or activity of a reporter protein is the signal.)

A short description of data set [2]: Binding to aluminum hydroxide adjuvant, HPLC of formulation supernatant. The settings on record: aluminum hydroxide 2 mg/mL, room temperature and 37° C., 1, 5 and 24 hours. The class given is physicochemical. As for the experimental part: The binding of the compounds of Formula (I) provided herein to aluminum-containing adjuvants at pH 9 and pH 6.5 was evaluated using HPLC to monitor the presence of the compound of Formula (I) in the supernatant.
(§1) Compound 1 (0.5 mg/mL) was dissolved in 10 mM NaOH and added to aluminum hydroxide adjuvant (2 mg/mL) resulting in a 100 μg/dose formulation. The supernatant was evaluated with HPLC using a ballistic gradient (from 10% CH3CN-0.1% TFA to 100% CH3CN-0.1% TFA in 2.5 minutes) on a C18 ([…]×4.6 mm) ACE column at 45° C. To evaluate the effect of supernatant temperature and incubation time on binding, the supernatant was evaluated at a supernatant temperature of room temperature and at 37° C. after 1 hour, 5 hours and 24 hours. A control without aluminum hydroxide was also evaluated.
(§2) Compound 5 (1 mg/mL) was dissolved in 10 mM NaOH and added to aluminum hydroxide adjuvant (2 mg/mL) resulting in a 100 μg/dose formulation. The supernatant was evaluated with HPLC using a ballistic gradient (from 10% CH3CN-0.1% TFA to 100% CH3CN-0.1% TFA in 2.5 minutes) on a C18 ([…]×4.6 mm) ACE column at 45° C. To evaluate the effect of supernatant temperature and incubation time on binding, the supernatant was evaluated at a supernatant temperature of room temperature and at 37° C. after 1 hour, 5 hours and 24 hours. A control without aluminum hydroxide was also evaluated.
as §1, with “formulation. The pH of the solution was adjusted to pH 6.5 using HCl.” for “formulation.”
as §2, with “histidine buffer (1 mg/mL)” for “NaOH”

Data set [3] can be described thus: Desorption from aluminum hydroxide with KH2PO4 and n-butanol extraction, HPLC. It counts as physicochemical. The procedure: An organic solvent extraction method was used to evaluate whether compound 1 was covalently bound to aluminum hydroxide. The formulation was prepared as follows: 2 mg/ml aluminum hydroxide, 100 μg/dose compound 1, 10 mM histidine buffer) and the pH was adjusted to 9. A control formulation without aluminum hydroxide was also prepared.
One ml of the formulation containing Alum was mixed with 1 ml of KH2PO4 1M pH 9 (0.5M final conc, pH 9) and was left in gentle agitation overnight at 37° C. to allow desorption of compound 1 (compound 5) from the aluminum hydroxide via ligand exchange with the phosphate anions. Organic extraction was then performed: 1 ml of each sample was mixed with 1 ml of n-butanol and vortexed. After the formation of 2 phases, the upper phase (butanol) was recovered, dried with N2 and resuspended in MeOH/10 mM NaOH. HPLC analysis was run both for the formulation supernatants and for the butanol extracted samples (C18 column; 0-100% B in 2 min; A=0.1% TFA in H2O; B=0.1% TFA in ACN).
The adsorption of compound 16 and compound 18 to aluminum hydroxide was also evaluated using the alum formulation described above for compound 1. […] In addition, SDS PAGE analysis of antigen binding in the presence of compound 16 or compound 18 was carried out as described above.

Data set [4] is described as follows: Binding to alum in 10 mM histidine buffer, LC-MS/MS of supernatant. It counts as physicochemical. The settings on record: 10 mM histidine buffer pH 6.8; final compound 0.1 mg/mL; 37° C. for 5 hours; 100% minus % unbound.
Method: The resulting solution was diluted 10-fold with blank histidine buffer to a final compound concentration of 0.1 mg/mL. Diluted solutions were incubated at 37° C. for 5 hours. The samples were centrifuged at 14,000 rpm for 10 minutes to pellet the insoluble. The supernatant (along with an internal standard) was then evaluated by LC-MS/MS using a ballistic gradient (from 5% CH3CN-0.5% formic acid to 95% CH3CN-1.0% formic acid in 3.5 minutes) on a Waters Atlantis dC18 (50 mm×2.1 mm) column at room temperature against a calibration curve prepared at known compound concentrations ranging from 0.005 to 50 μM. The concentration in the supernatant was calculated as % unbound to alum compared to control; the % bound to alum was calculated as 100% minus % unbound.

Turning to `Cc1ccc2c(c1)nc(N)c1ncc(CCc3ccc(OCCCP(=O)(O)O)cc3C)cc12` [Compound 1, 3-(4-(2-(5-amino-8-methylbenzo[f][1,7]naphthyridin-2-yl)ethyl)-3-methylphenoxy)propylphosphonic acid], the concentration for a half-maximal effect (EC50) in data set [1] is 226 nM. The “presence of compound in supernatant when aluminum hydroxide included in formulation (HPLC)” value was “not present in the supernatant” in data set [2] (pH 6.5 (adjusted with HCl)) and “not present in the supernatant” in data set [2] (pH 9, dissolved in 10 mM NaOH). In addition, the “quantity of compound in supernatant of formulation treated with KH2PO4 (desorption by phosphate anions)” value in data set [3] (0.5M KH2PO4 pH 9, overnight 37° C.) is given as “Increased quantities”. Besides, in data set [3] (alum formulation treated with 0.5M KH2PO4, n-butanol extracted sample), the “Concentration (mg/ml), phosphate/extract” value turned out to be 0.119 ± 0.001 mg/mL. Further, in data set [3] (alum formulation treated with 0.5M KH2PO4 pH 9 overnight at 37° C., supernatant), the “Concentration (mg/ml), phosphate supernatent” value stood at 0.059 ± 0.001 mg/mL. Besides, the “Concentration (mg/ml), extaract” value in data set [3] (alum formulation, n-butanol extracted sample) stood at 0.027 ± 0.001 mg/mL. In data set [3] (control formulation without aluminum hydroxide, n-butanol extracted sample), the “Concentration (mg/ml), control/extract” value came to 0.217 ± 0.001 mg/mL. Further, in data set [3] (control formulation without aluminum hydroxide, supernatant), the “Concentration (mg/ml), supernatant control” value turned out to be 0.329 ± 0.001 mg/mL. For the same compound, in data set [3] (formulation with 2 mg/ml aluminum hydroxide, 10 mM histidine buffer pH 9, supernatant), the “Concentration (mg/ml), supernatent” value was 0.005 ± 0.001 mg/mL.

`Cc1ccc2c(c1)nc(N)c1ncc(CCc3ccc(OCCCC(F)(F)P(=O)(O)O)cc3C)cc12` [Compound 5, 4-(4-(2-(5-amino-8-methylbenzo[f][1,7]naphthyridin-2-yl)ethyl)-3-methylphenoxy)-1,1-difluorobutylphosphonic acid]: the response in data set [1] was half-maximal at 308 nM (EC50). For the same compound, the “presence of compound in supernatant when aluminum hydroxide included in formulation (HPLC)” value in data set [2] (pH 6.7, 10 mM histidine buffer) is recorded as “not present in the supernatant”; in data set [2] (pH 9, dissolved in 10 mM NaOH), “not present in the supernatant”.

As to `Cc1cc(OCCCC(F)(F)P(=O)(O)O)ccc1CCc1cnc2c(N)nc3cc(CCC(=O)O)ccc3c2c1` [Compound 16, 3-(5-amino-2-(4-(4,4-difluoro-4-phosphonobutoxy)-2-methylphenethyl)benzo[f][1,7]naphthyridin-8-yl)propanoic acid], a half-maximal effect in data set [1] (EC50) was put at 137 nM. Further, the “% Alum bound in Histidine buffer” value in data set [4] is on record as 94.5%. The “compound in supernatant after addition of aluminum hydroxide (HPLC)” value in data set [3] (alum formulation as described for compound 1) is “no compound was observed in the supernatant”.

As to `Cc1cc(OCCOCCOCCC(F)(F)P(=O)(O)O)ccc1CCc1cnc2c(N)nc3cc(CCC(=O)O)ccc3c2c1` [Compound 17, 3-(5-amino-2-(4-(2-(2-(3,3-difluoro-3-phosphonopropoxy)ethoxy)ethoxy)-2-methylphenethyl)benzo[f][1,7]naphthyridin-8-yl)propanoic acid], the concentration giving a half-maximal response (EC50) in data set [1] was 5 nM. Moreover, the “% Alum bound in Histidine buffer” value in data set [4] was 96.2%.

As for `Cc1cc(OCCOCCOCCP(=O)(O)O)ccc1CCc1cnc2c(N)nc3cc(CCC(=O)O)ccc3c2c1` [Compound 20, 3-(5-amino-2-(2-methyl-4-(2-(2-(2-phosphonoethoxy)ethoxy)ethoxy)phenethyl)benzo[f][1,7]naphthyridin-8-yl)propanoic acid], the 50% effective concentration (EC50) in data set [1] is 384 nM. Also, the “% Alum bound in Histidine buffer” value in data set [4] was 97.0%.
